Experimental findings from ChEMBL document CHEMBL5465560, “Selectivity Literature for EUbOPEN Chemogenomic Library” (2024) are described below.

Experiment [1] has as its target T1, Activin receptor type-1 (Homo sapiens) (UniProt Q04771).
T1 sequence (whole entry): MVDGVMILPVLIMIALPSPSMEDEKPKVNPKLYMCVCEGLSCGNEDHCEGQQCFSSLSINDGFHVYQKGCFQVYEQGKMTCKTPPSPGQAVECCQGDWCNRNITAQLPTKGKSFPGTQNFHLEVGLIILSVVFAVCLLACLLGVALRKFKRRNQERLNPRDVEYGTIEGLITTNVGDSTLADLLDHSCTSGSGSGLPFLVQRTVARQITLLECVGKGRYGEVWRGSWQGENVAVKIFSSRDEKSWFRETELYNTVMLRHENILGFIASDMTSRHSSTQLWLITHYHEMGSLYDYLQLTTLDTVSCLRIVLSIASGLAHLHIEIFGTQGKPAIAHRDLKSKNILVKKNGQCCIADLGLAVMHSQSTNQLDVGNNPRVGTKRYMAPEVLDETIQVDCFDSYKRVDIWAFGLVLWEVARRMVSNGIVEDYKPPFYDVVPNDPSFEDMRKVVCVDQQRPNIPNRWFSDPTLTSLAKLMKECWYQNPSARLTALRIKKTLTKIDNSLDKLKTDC
As to the kind of experiment: Selectivity interaction (KinomeScan (DiscoverX)) EUB0000607a ACVR1. The note with it: at 10 µM.

In experiment [2] the target is Citron Rho-interacting kinase (Homo sapiens) (UniProt O14578). The experiment is described as follows: Selectivity interaction (KinomeScan (DiscoverX)) EUB0001079a CIT. The settings on record: at 1 µM.
Sequence of Citron Rho-interacting kinase (Homo sapiens) (O14578 whole entry): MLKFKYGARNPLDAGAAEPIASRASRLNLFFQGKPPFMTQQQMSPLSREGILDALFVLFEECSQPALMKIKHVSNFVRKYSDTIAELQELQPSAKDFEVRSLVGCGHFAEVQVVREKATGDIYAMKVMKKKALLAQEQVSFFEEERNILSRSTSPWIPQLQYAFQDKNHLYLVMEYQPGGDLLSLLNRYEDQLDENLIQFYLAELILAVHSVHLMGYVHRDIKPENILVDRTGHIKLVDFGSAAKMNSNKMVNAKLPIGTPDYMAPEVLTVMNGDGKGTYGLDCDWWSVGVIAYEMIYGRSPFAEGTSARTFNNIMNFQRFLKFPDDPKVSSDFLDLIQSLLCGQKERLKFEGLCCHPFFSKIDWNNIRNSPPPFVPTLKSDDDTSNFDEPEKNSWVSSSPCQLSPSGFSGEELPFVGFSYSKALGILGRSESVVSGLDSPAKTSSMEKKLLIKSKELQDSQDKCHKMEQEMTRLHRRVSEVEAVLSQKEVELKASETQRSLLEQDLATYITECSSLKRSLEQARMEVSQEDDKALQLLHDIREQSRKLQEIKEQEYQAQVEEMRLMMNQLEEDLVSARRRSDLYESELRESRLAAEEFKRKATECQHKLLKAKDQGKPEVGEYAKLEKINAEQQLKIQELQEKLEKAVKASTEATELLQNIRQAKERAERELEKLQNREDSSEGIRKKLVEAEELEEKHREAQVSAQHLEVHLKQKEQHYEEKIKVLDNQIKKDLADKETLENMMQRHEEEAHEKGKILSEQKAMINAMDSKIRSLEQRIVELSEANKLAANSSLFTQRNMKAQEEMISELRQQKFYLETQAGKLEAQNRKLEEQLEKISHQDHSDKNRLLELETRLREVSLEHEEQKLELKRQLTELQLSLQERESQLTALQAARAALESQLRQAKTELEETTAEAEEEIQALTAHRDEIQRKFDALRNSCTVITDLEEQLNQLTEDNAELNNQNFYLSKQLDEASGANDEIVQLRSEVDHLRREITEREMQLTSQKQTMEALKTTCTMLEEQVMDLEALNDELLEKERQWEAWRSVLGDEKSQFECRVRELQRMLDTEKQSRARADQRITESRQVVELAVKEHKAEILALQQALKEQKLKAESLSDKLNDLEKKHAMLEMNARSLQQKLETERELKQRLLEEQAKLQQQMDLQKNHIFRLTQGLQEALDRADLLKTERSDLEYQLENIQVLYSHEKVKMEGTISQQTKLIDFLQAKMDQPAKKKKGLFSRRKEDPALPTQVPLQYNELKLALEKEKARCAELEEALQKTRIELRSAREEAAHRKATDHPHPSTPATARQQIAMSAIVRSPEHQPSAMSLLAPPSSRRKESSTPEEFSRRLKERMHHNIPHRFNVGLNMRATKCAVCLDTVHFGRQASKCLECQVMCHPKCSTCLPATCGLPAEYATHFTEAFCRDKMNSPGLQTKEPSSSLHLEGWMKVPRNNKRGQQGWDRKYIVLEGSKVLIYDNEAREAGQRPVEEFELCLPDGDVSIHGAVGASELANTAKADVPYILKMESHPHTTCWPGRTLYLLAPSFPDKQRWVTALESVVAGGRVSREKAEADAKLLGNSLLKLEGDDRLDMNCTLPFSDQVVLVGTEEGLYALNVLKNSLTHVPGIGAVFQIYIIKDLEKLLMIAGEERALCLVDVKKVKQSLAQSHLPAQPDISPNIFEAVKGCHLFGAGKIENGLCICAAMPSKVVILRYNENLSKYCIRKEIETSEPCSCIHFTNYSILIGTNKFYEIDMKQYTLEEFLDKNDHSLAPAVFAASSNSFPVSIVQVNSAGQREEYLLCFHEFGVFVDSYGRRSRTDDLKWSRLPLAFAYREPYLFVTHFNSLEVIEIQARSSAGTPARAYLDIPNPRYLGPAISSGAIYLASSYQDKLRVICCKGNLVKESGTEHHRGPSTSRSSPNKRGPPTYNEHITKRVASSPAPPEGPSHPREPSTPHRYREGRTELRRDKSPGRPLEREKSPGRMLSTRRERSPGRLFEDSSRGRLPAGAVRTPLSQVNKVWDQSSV
Experiment [3] deals with Calcium/calmodulin-dependent protein kinase type II subunit alpha (Homo sapiens, UniProt Q9UQM7). The experiment is described as follows: Selectivity interaction (KinomeScan (DiscoverX)) EUB0000092b CAMK2A. The note with it: at 10 µM.
Sequence of Calcium/calmodulin-dependent protein kinase type II subunit alpha (Q9UQM7 whole entry): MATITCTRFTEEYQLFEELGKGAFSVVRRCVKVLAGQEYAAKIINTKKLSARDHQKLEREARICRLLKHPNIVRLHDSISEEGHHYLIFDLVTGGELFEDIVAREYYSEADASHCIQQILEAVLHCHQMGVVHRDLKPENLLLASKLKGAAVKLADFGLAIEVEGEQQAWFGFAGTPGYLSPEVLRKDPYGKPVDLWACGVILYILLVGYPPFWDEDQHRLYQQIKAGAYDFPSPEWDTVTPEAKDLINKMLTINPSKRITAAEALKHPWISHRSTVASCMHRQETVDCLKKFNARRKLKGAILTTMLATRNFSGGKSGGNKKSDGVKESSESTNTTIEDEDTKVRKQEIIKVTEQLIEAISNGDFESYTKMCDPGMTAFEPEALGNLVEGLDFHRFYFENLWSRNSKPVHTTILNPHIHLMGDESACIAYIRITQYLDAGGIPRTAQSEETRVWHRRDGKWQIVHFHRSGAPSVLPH
In experiment [4] the target is T2, Serine/threonine-protein kinase PLK4 (Homo sapiens) (UniProt O00444).
T2 sequence (whole entry): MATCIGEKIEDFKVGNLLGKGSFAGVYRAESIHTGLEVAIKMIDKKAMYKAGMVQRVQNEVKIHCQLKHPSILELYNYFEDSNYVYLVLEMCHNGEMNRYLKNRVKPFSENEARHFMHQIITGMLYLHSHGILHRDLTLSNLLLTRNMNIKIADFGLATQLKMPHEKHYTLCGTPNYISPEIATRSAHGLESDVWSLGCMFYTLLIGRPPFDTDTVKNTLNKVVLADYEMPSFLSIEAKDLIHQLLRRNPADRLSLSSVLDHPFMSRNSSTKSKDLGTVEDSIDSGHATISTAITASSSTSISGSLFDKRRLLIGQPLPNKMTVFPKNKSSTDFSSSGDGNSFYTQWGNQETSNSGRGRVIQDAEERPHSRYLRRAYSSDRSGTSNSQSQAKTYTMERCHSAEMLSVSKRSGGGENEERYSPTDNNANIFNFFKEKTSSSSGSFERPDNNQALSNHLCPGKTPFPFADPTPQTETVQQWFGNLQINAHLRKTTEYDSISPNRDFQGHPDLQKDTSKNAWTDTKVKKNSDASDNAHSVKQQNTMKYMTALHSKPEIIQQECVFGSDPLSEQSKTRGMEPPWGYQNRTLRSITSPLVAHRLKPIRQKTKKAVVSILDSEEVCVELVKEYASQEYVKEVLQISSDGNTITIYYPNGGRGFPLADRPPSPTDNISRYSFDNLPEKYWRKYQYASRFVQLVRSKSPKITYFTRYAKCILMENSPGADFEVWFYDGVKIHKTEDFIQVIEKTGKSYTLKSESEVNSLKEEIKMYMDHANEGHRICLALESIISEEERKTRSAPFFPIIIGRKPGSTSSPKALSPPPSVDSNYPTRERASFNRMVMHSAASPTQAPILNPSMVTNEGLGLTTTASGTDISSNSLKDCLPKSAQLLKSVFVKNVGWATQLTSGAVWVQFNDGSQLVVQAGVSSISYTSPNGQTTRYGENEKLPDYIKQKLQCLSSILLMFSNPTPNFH
The experiment is described as follows: Selectivity interaction (KinomeScan (DiscoverX)) EUB0000045b PLK4.

Experiment [5] deals with T3, Dual serine/threonine and tyrosine protein kinase (Homo sapiens) (UniProt Q6XUX3).
T3 sequence (whole entry): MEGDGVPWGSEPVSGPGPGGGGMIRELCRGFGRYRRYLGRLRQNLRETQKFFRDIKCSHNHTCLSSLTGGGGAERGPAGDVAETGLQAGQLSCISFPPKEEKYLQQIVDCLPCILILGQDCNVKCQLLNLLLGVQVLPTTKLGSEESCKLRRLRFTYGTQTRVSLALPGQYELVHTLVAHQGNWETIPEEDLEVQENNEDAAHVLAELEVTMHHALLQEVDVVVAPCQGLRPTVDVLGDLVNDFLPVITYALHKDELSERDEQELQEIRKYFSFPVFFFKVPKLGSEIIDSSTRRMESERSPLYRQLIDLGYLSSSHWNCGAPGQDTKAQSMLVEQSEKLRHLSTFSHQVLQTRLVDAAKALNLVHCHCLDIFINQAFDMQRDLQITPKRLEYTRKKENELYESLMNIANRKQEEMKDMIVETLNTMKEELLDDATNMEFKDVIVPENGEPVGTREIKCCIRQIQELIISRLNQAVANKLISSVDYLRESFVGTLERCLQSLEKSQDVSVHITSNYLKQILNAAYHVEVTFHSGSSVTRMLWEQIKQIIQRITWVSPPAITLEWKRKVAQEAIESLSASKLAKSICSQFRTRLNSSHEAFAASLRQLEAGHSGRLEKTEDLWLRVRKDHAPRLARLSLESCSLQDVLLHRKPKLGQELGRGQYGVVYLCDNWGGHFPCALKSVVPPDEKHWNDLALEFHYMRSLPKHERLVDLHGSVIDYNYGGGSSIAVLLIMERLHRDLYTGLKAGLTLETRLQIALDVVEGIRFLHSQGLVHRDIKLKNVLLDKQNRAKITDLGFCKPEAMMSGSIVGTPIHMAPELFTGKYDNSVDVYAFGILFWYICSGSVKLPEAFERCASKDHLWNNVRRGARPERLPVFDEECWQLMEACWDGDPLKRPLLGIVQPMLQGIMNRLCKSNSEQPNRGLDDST
As to the kind of experiment: Selectivity interaction (KinomeScan (DiscoverX)) EUB0000595a DSTYK. The settings on record: at 10 µM.

For the molecule `CNC(=O)Nc1ccc(-c2nc(N3CC4CCC(C3)O4)c3cnn(C4CCC5(CC4)OCCO5)c3n2)cc1`, the % of control in experiment [1] came to 90%.
As to `Nc1cnc(N2CCc3cc(S(=O)(=O)Nc4c(F)cc(Cl)cc4F)cc(N4CCCC4=O)c32)nc1` [TP-020n], the % of control in experiment [2] turned out to be 91%.
In the case of `CCC(=O)N1CCN(c2ccc(-n3c(=O)ccc4cnc5ccc(-c6cnc7ccccc7c6)cc5c43)cc2C(F)(F)F)CC1`, the % of control in experiment [3] came out at 93%.
Turning to `C=CC(=O)Nc1cc(-n2c(=O)ccc3cnc4ccc(-c5ccc(NS(C)(=O)=O)cc5)cc4c32)ccc1C`, the % of control in experiment [4] (at 1 µM) turned out to be 100%; in experiment [4] (at 10 µM), 73%.
Consider `COCC(=O)NC/C=C/c1ccc2ncnc(Nc3ccc(Oc4ccc(C)nc4)c(C)c3)c2c1` [CP-724714], for which the % of control in experiment [5] came to 75%.
